A compilation of properties of binary mixtures (doi:10.1021/acs.jced.3c00247)

Assay: xn = mol fraction of the nth substance listed
Conditions: 100 kPa

O + C[C@H](N)C(=O)[O-].C[N+](C)(C)CCO
x2 = 0
Conditions | viscosity [mPa·s]
288.09 K | 1.08
289.33 K | 1.05
290.56 K | 1.02
291.75 K | 0.98
292.93 K | 0.96
294.1 K | 0.93
295.28 K | 0.9
297.64 K | 0.86
298.81 K | 0.84
301.17 K | 0.8
302.34 K | 0.78
303.52 K | 0.77
304.69 K | 0.75
305.87 K | 0.74
308.22 K | 0.71

C[C@H](N)C(=O)[O-].C[N+](C)(C)CCO + O
Conditions | viscosity [mPa·s]
287.92 K, x1 = 0.097 | 10.7
287.94 K, x1 = 0.198 | 60
288 K, x1 = 0.3748 | 345
288 K, x1 = 0.4948 | 710
288.02 K, x1 = 0.5975 | 1059
288.02 K, x1 = 0.8993 | 3070
288.06 K, x1 = 0.7994 | 2139
288.08 K, x1 = 0.692 | 1634
289.2 K, x1 = 0.198 | 57
289.22 K, x1 = 0.097 | 10.2
289.22 K, x1 = 0.3748 | 328
289.23 K, x1 = 0.2939 | 166
289.24 K, x1 = 0.4948 | 660
289.26 K, x1 = 0.8993 | 2817
289.29 K, x1 = 0.7994 | 1961
290.21 K, x1 = 1 | 4300
290.48 K, x1 = 0.198 | 53
290.48 K, x1 = 0.3748 | 300
290.5 K, x1 = 0.097 | 9.6
290.5 K, x1 = 0.4948 | 600
290.5 K, x1 = 0.5975 | 880
290.52 K, x1 = 0.8993 | 2510
290.54 K, x1 = 0.692 | 1293
291.71 K, x1 = 0.2939 | 140
291.71 K, x1 = 0.3748 | 274
291.72 K, x1 = 0.097 | 9.2
291.72 K, x1 = 0.198 | 50
291.72 K, x1 = 0.4948 | 540
291.72 K, x1 = 0.5975 | 790
291.73 K, x1 = 0.7994 | 1562
291.73 K, x1 = 0.8993 | 2231
291.74 K, x1 = 0.692 | 1150
292.02 K, x1 = 1 | 3052
292.32 K, x1 = 1 | 3520
292.91 K, x1 = 0.198 | 46
292.91 K, x1 = 0.2939 | 129
292.91 K, x1 = 0.3748 | 250
292.92 K, x1 = 0.7994 | 1393
292.92 K, x1 = 0.8993 | 1984
294.08 K, x1 = 1 | 2544
294.1 K, x1 = 0.198 | 43
294.1 K, x1 = 0.2939 | 119
294.1 K, x1 = 0.3748 | 230
294.1 K, x1 = 0.5975 | 650
294.1 K, x1 = 0.8993 | 1775
294.41 K, x1 = 1 | 2896
295.27 K, x1 = 0.097 | 8
295.27 K, x1 = 0.198 | 40.8
295.27 K, x1 = 0.2939 | 111
295.27 K, x1 = 0.3748 | 212
295.27 K, x1 = 0.4948 | 410
295.27 K, x1 = 0.5975 | 590
295.27 K, x1 = 0.692 | 840
295.27 K, x1 = 0.8993 | 1599
296.14 K, x1 = 1 | 2140
296.45 K, x1 = 0.097 | 7.7
296.45 K, x1 = 0.198 | 38.3
296.45 K, x1 = 0.2939 | 103
296.45 K, x1 = 0.3748 | 195
296.45 K, x1 = 0.5975 | 540
296.45 K, x1 = 0.692 | 760
296.45 K, x1 = 0.8993 | 1438
296.48 K, x1 = 1 | 2402
297.63 K, x1 = 0.198 | 36.2
297.63 K, x1 = 0.2939 | 96
297.63 K, x1 = 0.3748 | 181
297.63 K, x1 = 0.4948 | 347
297.63 K, x1 = 0.5975 | 490
297.63 K, x1 = 0.692 | 700
297.63 K, x1 = 0.7994 | 920
297.63 K, x1 = 0.8993 | 1302
298.2 K, x1 = 1 | 1806
298.54 K, x1 = 1 | 2000
298.8 K, x1 = 0.5975 | 450
298.8 K, x1 = 0.8993 | 1183
298.81 K, x1 = 0.097 | 7.1
298.81 K, x1 = 0.198 | 34.3
298.81 K, x1 = 0.3748 | 168
298.81 K, x1 = 0.4948 | 320
298.81 K, x1 = 0.692 | 630
299.98 K, x1 = 0.198 | 32.3
299.98 K, x1 = 0.2939 | 84
299.98 K, x1 = 0.4948 | 294
299.98 K, x1 = 0.5975 | 410
299.98 K, x1 = 0.692 | 580
299.98 K, x1 = 0.7994 | 760
299.98 K, x1 = 0.8993 | 1071
300.61 K, x1 = 1 | 1681
301.16 K, x1 = 0.097 | 6.6
301.16 K, x1 = 0.198 | 30.6
301.16 K, x1 = 0.2939 | 79
301.16 K, x1 = 0.3748 | 145
301.16 K, x1 = 0.4948 | 271
301.16 K, x1 = 0.5975 | 379
301.16 K, x1 = 0.7994 | 690
301.16 K, x1 = 0.8993 | 970
302.33 K, x1 = 0.198 | 29
302.33 K, x1 = 0.2939 | 74
302.33 K, x1 = 0.4948 | 251
302.33 K, x1 = 0.5975 | 348
302.33 K, x1 = 0.692 | 480
302.33 K, x1 = 0.7994 | 630
302.33 K, x1 = 0.8993 | 890
302.34 K, x1 = 0.097 | 6.4
302.34 K, x1 = 1 | 1310
302.66 K, x1 = 1 | 1421
303.51 K, x1 = 0.097 | 6.2
303.51 K, x1 = 0.198 | 27.6
303.51 K, x1 = 0.2939 | 69
303.51 K, x1 = 0.4948 | 233
303.51 K, x1 = 0.5975 | 322
303.51 K, x1 = 0.692 | 440
303.51 K, x1 = 0.8993 | 810
304.41 K, x1 = 1 | 1119
304.69 K, x1 = 0.097 | 6
304.69 K, x1 = 0.198 | 26.2
304.69 K, x1 = 0.2939 | 65
304.69 K, x1 = 0.3748 | 117
304.69 K, x1 = 0.4948 | 216
304.69 K, x1 = 0.5975 | 297
304.69 K, x1 = 0.692 | 410
304.69 K, x1 = 0.7994 | 530
304.69 K, x1 = 0.8993 | 740
305.86 K, x1 = 0.198 | 24.9
305.86 K, x1 = 0.2939 | 61
305.86 K, x1 = 0.5975 | 274
305.86 K, x1 = 0.692 | 375
305.86 K, x1 = 0.7994 | 480
305.87 K, x1 = 0.097 | 5.7
306.48 K, x1 = 1 | 960
306.78 K, x1 = 1 | 1030
307.04 K, x1 = 0.097 | 5.6
307.04 K, x1 = 0.198 | 23.7
307.04 K, x1 = 0.2939 | 58
307.04 K, x1 = 0.4948 | 186
307.04 K, x1 = 0.692 | 347
307.04 K, x1 = 0.7994 | 440
308.21 K, x1 = 0.4948 | 173
308.21 K, x1 = 0.5975 | 236
308.21 K, x1 = 0.692 | 321
308.22 K, x1 = 0.097 | 5.4
308.22 K, x1 = 0.198 | 22.6
308.22 K, x1 = 0.2939 | 54
308.22 K, x1 = 0.3748 | 96
308.22 K, x1 = 0.7994 | 410
308.22 K, x1 = 0.8993 | 570
308.54 K, x1 = 1 | 830
308.84 K, x1 = 1 | 880
310.61 K, x1 = 1 | 720
310.9 K, x1 = 1 | 760
312.67 K, x1 = 1 | 630
312.95 K, x1 = 1 | 660
314.74 K, x1 = 1 | 550
315.01 K, x1 = 1 | 570
316.82 K, x1 = 1 | 480
317.07 K, x1 = 1 | 500
318.91 K, x1 = 1 | 420
319.13 K, x1 = 1 | 440
321.04 K, x1 = 1 | 374
321.19 K, x1 = 1 | 387
323.25 K, x1 = 1 | 342
